The text below walks through data of ChEMBL document CHEMBL5247589, “Natural occurrence, bioactivity, and biosynthesis of triene-ansamycins” (Eur J Med Chem, 2022).

Structures are written as SMILES.

A word on the IC50: it is the concentration needed to halve the response being measured. One may read the EC50 as the concentration giving half of the maximal effect. A higher EC50 goes with weaker potency.

Assay [1] deals with Capan-2. The assay is described as follows: Antitumor activity against human Capan-2 cells incubated for 48 to 72 hrs by MTS Assay. Type of assay: functional, cell-based.
Assay [2] deals with PANC-1. The assay is described as follows: Antitumor activity against human PANC-1 cells incubated for 48 to 72 hrs by MTS Assay. Type of assay: functional, cell-based.
Assay [3] has as its system BXPC-3. As to the kind of experiment: Antitumor activity against human BXPC-3 cells incubated for 48 to 72 hrs by MTS Assay. Type of assay: functional, cell-based.
For assay [4], the system named is HepG2. The assay is described as follows: Antitumor activity against human HepG2 cells incubated for 72 hrs by SRB calorimetric assay. Type of assay: functional, cell-based. The settings on record: HepG2, 72 h.
Assay [5] relates to PC-3. The assay is described as follows: Antitumor activity against human PC-3 cells incubated for 72 hrs by SRB calorimetric assay. Type of assay: functional, cell-based. To be noted: PC-3, 72 h.
Assay [6] can be described thus: Inhibition of NO production in LPS stimulated mouse BV-2 cells measured after 24 hrs. To be noted: BV-2, 24 h. Type of assay: functional, cell-based.
Assay [7] deals with PANC-1. The assay is described as follows: Antitumor activity against human PANC-1. Type of assay: functional, cell-based. To be noted: pooled result: one value given for 3 cell lines, strains, targets or settings.
The subject of assay [8] is SiHa. The assay is described as follows: Antitumor activity against human SiHa cells assessed as cell growth inhibition incubated for 5 days by MTT assay. Type of assay: functional, cell-based. To be noted: 120 h. In general terms: Tetrazolium assays rely on reduction of a dye to a coloured formazan, in cell work by metabolically active cells.
Assay [9] concerns C-33-A. The assay is described as follows: Antitumor activity against human C-33-A cells assessed as cell growth inhibition incubated for 5 days by MTT assay. The settings on record: 120 h. Type of assay: functional, cell-based.
Assay [10] relates to HeLa. As to the kind of experiment: Antitumor activity against human HeLa cells assessed as cell growth inhibition incubated for 5 days by MTT assay. Type of assay: functional, cell-based. To be noted: 120 h.
The subject of assay [11] is Ca-Ski. As to the kind of experiment: Antitumor activity against human Ca-Ski cells assessed as cell growth inhibition incubated for 5 days by MTT assay. Type of assay: functional, cell-based. To be noted: 120 h.
Assay [12] concerns HT-3. The assay is described as follows: Antitumor activity against human HT-3 cells assessed as cell growth inhibition incubated for 5 days by MTT assay. Type of assay: functional, cell-based. The settings on record: HT-3, 120 h.
For assay [13], the system named is A549. As to the kind of experiment: Antitumor activity against human A549 cells incubated for 72 hrs by MTT assay. Type of assay: functional, cell-based. To be noted: A549, 72 h.
Assay [14] concerns MCF7. The assay is described as follows: Antitumor activity against human MCF7 cells incubated for 72 hrs by MTT assay. Type of assay: functional, cell-based. To be noted: MCF7, 72 h.
Assay [15] has as its system K562. The assay is described as follows: Antitumor activity against human K562 cells incubated for 24 hrs by CCK-8 assay. Type of assay: functional, cell-based. To be noted: K562, 24 h.
The test system of assay [16] is HeLa. As to the kind of experiment: Antitumor activity against human HeLa cells. Type of assay: functional, cell-based.
Assay [17] relates to HT-29. The assay is described as follows: Antitumor activity against human HT29 cells. Type of assay: functional, cell-based.
Assay [18] deals with HCT-116. As to the kind of experiment: Antitumor activity against human HCT116 cells. Type of assay: functional, cell-based.
For assay [19], the system named is HL-60. The assay is described as follows: Antitumor activity against human HL60 cells. Type of assay: functional, cell-based.
For assay [20], the system named is B16. As to the kind of experiment: Antitumor activity against mouse B-16 cells. Type of assay: functional, cell-based.
Assay [21] has as its system U-937. As to the kind of experiment: Antitumor activity against human U937 cells. Type of assay: functional, cell-based.
The subject of assay [22] is THP-1. The assay is described as follows: Antitumor activity against human THP1 cells. Type of assay: functional, cell-based.
The test system of assay [23] is PC-3. The assay is described as follows: Antiproliferative activity against human PC3 cells assessed as cell viability incubated for 48 hrs by Cell Counting Kit-8 assay. Type of assay: functional, cell-based. The settings on record: PC-3, 48 h.
Assay [24] deals with HepG2. The assay is described as follows: Antiproliferative activity against human HepG2 cells assessed as cell viability incubated for 48 hrs by Cell Counting Kit-8 assay. Type of assay: functional, cell-based. The settings on record: HepG2, 48 h.
Assay [25] in a line: Antiproliferative activity against human U87 cells overexpressing miR-9 assessed as cell viability incubated for 48 hrs by Cell Counting Kit-8 assay. To be noted: U-87 MG. Type of assay: functional, cell-based, U-87MG ATCC.

`CCCC(=O)N[C@H](C)C(=O)O[C@H]1C/C=C/C=C/C=C/[C@H](OC)CC(=O)Nc2cc(O)cc(c2)CC/C=C(/C)[C@H](O)[C@H]1C`: the IC50 in assay [1], in assay [2], in assay [3], in assay [4] and in [5] was 2040 nM in each case.
In the case of `CO[C@H]1/C=C/C=C/C=C/C[C@H](O)[C@H](C)[C@@H](OC(=O)[C@@H](C)NC(=O)C2CCCCC2)/C(C)=C\CCc2cc(O)cc(c2)NC(=O)C1`, the IC50 in [1], in [2] and in assay [3] was > 10000 nM in each case. This compound showed an EC50 in [6] of 292 nM.
On to `CO[C@H]1/C=C/C=C/C=C/C[C@H](OC(=O)[C@@H](C)NC(=O)C2=CCCCC2)[C@H](C)[C@@H](O)/C(C)=C\CCc2cc(O)cc(c2)NC(=O)C1`, for which the IC50 in [7] was found to be 35 nM.
Consider `CO[C@H]1/C=C/C=C/C=C/C[C@H](OC(=O)[C@@H](C)NC(=O)CCCC(C)C)[C@H](C)[C@@H](O)/C(C)=C\CCc2cc(O)cc(c2)NC(=O)C1`, for which the IC50 in assay [1], in [2], in assay [3] and in assay [5] was 100 nM in each case.
Turning to `CO[C@H]1/C=C/C=C/C=C/C[C@H](OC(=O)[C@@H](C)NC(=O)CC(C)C)[C@H](C)[C@@H](O)/C(C)=C\CCc2cc(O)cc(c2)NC(=O)C1`, the IC50 in [7] was found to be 170 nM.
Same read-out and setting: then `CO[C@H]1/C=C/C=C/C=C/C[C@H](OC(=O)[C@@H](C)NC(=O)CCC(C)C)[C@H](C)[C@@H](O)/C(C)=C\CCc2cc(O)cc(c2)NC(=O)C1`, with 170 nM.
Regarding `CO[C@H]1/C=C/C=C/C=C/C[C@H](OC(=O)[C@@H](C)NC(=O)C2CCCCC2)[C@H](C)[C@@H](O)/C(C)=C\CCC2=C(O)C(=O)C=C(NC(=O)C1)C2=O`, the IC50 in assay [8], in assay [9], in assay [10], in [11] and in [12] was 70 nM each time.
In the case of `CO[C@H]1/C=C/C=C/C=C/C[C@H](OC(C)=O)[C@H](C)[C@@H](O)/C(C)=C\CCc2cc(O)cc(c2)NC(=O)C1`, the IC50 in assay [13], in [14] and in assay [15] was > 10000 nM each time.
`C/C=C(\C)C(=O)N[C@H](C)C(=O)O[C@H]1C/C=C/C=C/C=C/[C@H](OC)CC(=O)Nc2cc(O)cc(c2)CC/C=C(/C)[C@H](O)[C@H]1C`: the IC50 in assay [1], in [2] and in assay [3] was ≥ 10000 nM each time.
Regarding `CO[C@H]1/C=C/C=C/C=C/C[C@H](OC(=O)C2(NC(=O)C3=CCCCC3)CC2)[C@H](C)[C@@H](O)/C(C)=C\CCc2c(O)c(cc3c2SCC(=O)N3)NC(=O)C1`, the IC50 in assay [16], in [17], in [18], in assay [19], in assay [20] and in assay [21] was 300 nM each time. The compound also gave an IC50 in [22] of 300 nM.
Regarding `CO[C@@H]1CC(=O)Nc2c(O)c3cc4c2[C@H]1[C@@H](/C=C/C=C/C[C@H](O)[C@H](C)[C@@H](OC(=O)[C@@H](C)NC(=O)C1CCCCC1)/C(C)=C\CC3)O4`, the 50% inhibitory concentration (IC50) in [23], in assay [24] and in assay [25] was > 10000 nM each time.
Regarding `CO[C@H]1/C=C/C=C/C=C/C[C@H](O)[C@H](C)[C@@H](OC(=O)[C@@H](C)NC(=O)C2CCCCC2)/C(C)=C\CCC2=C(O)C(=O)C=C(NC(=O)C1)C2=O`, the IC50 in assay [8], in assay [9], in [10], in [11] and in [12] was 450 nM in each case.
